From patent publication US20100087383A1, “INT[…] INHIBITOR AND USE THEREOF” (National University Corporation Nagoya University, priority 2006, published 2010)

Columns and labels:
[1] = tested on: Alzheimer's disease mouse model subjected to intraventricular injection of Aβ; test: Novel object recognition test, oral administration, Alzheimer's disease mouse model subjected to intraventricular injection of Aβ25-35; type: in vivo; settings: day 5 after Aβ25-35, ICR mice, FIG. 2
Protocol: (§1) An Alzheimer's disease mouse model was produced by injecting Aβ25-35 (the aggregation of which had been accelerated by 4 days of incubation at 37° C.) to mouse cerebral ventricle, following which it was used for the experimental system. ICR mice (body weight of 20-22 g (7 weeks old), purchased from Japan SLC Inc. (Shizuoka, Japan)) were divided into 4 groups (n=15). A physiological saline solution that is a solvent for Leu-Ile, Leu-Ile (1.5 μmol/Kg), or Leu-Ile (15 μmol/Kg) was administered to Alzheimer's disease mouse model groups. Then the groups were used for the experiment.
Moreover, an Leu-Ile 7.5 μmol/Kg administrated group and an Leu-Ile 75 μmol/Kg administrated group were subjected to oral administration of Leu-Ile (7.5 μmol/Kg) and Leu-Ile (75 μmol/Kg), respectively, immediately after administration of Aβ25-35. A novel object recognition test (Ennaceur et al., Behav Brain Res 80 9-25, 1996) was conducted for all groups 3 to 5 days after intraventricular administration of Aβ25-35 or a physiological saline solution. The test results on day 5 after administration of Aβ25-35 or a physiological saline solution were compared with the other test results on […] after administration (FIG. 2).

[2] = tested on: Alzheimer's disease mouse model subjected to intraventricular injection of Aβ; test: Novel object recognition test, intraperitoneal administration, Alzheimer's disease mouse model subjected to intraventricular injection of Aβ25-35; type: in vivo; settings: day 5 after Aβ25-35, ICR mice, FIG. 3
Protocol: as §1, with “cerebral ventricle and then” for “cerebral ventricle, following which it was”, “20-22 g,” for “20-22 g (7 weeks old),”, “into 5” for “into 4”, “solution was administered instead of Aβ25-35 to the cerebral ventricle of a control group. A physiological saline solution;” for “solution”
The Alzheimer's disease model control group, the Leu-Ile […] administrated group, the Leu-Ile 15 μmol/Kg administrated group, and an Leu-Ile 75 μmol/Kg administrated group were separately subjected to the experiment.
Specifically, the Leu-Ile 7.5 μmol/Kg administrated group, the Leu-Ile 15 μmol/Kg administrated group, and the Leu-Ile 75 μmol/Kg administrated group were subjected to intraperitoneal administration of Leu-Ile (7.5 μmol/Kg), Leu-Ile (15 μmol/Kg), and Leu-Ile (75 μmol/Kg), respectively, immediately after administration of Aβ25-35.
(§2) A novel object recognition test was conducted for each of the above groups 3 to 5 days after intraventricular administration of Aβ25-35 or a physiological saline solution. The test results on day 5 after administration of Aβ25-35 or a physiological saline solution were compared with the other test results on […] after administration (FIG. 3). Furthermore, Leu-Ile (15 μmol/Kg) was intraperitoneally administered to untreated mice and then the mice were subjected to a novel object recognition test similar to that conducted for the above test groups.

untreated mice = test: Novel object recognition test in untreated mice; type: in vivo, mouse; settings: Leu-Ile 15 μmol/Kg intraperitoneal; untreated mice (no Aβ25-35)
Protocol: as §2

With Leu-Ile as the substance, how does the “recognition indices (novel object recognition test)” value (“recognition indices” for short) ([1]; Leu-Ile 7.5 μmol/Kg oral) read?
Its value is “decreased recognition indices were not confirmed”.

What about the “recognition indices” value ([1]; Leu-Ile 75 μmol/Kg oral) of the same substance?
Its value is “decreased recognition indices were not confirmed”.

What about the “recognition indices” value ([2]; Leu-Ile 1.5 μmol/Kg intraperitoneal) of the same substance?
Its value is “decreased recognition indices were not observed”.

And the “recognition indices” value ([2]; Leu-Ile 15 μmol/Kg intraperitoneal)?
Its value is “decreased recognition indices were not observed”.

And the “recognition indices” value ([2]; Leu-Ile 75 μmol/Kg intraperitoneal)?
Its value is “decreased recognition indices were not observed”.

And the “effects of improving memory (novel object recognition test)” value (untreated mice)?
Its value is “effects of improving memory were not observed”.
